According to article PMC5218480 (PLoS ONE, 2017):

Test system: MV-4-11 cells
Test: Gene expression microarray analysis (Affymetrix PrimeView) and GSEA
Format: cell-based, human
Set-up: RFU PODN (11730768_x_at) / Fold change /veh PODN (11730768_x_at) / RFU LINC00158 (11744669_a_at) / Fold change /veh LINC00158 (11744669_a_at) / RFU DUSP10 (11751237_a_at) / Fold change /veh DUSP10 (11751237_a_at) / RFU ID3 (11757404_x_at) / Fold change /veh ID3 (11757404_x_at) / RFU PLEKHG5 (11737974_s_at) / Fold change /veh PLEKHG5 (11737974_s_at) / RFU LRRC4B (11730491_at) / Fold change /veh LRRC4B (11730491_at) / RFU GIMAP4 (11747438_a_at) / Fold change /veh GIMAP4 (11747438_a_at) / RFU KRT8 (11758183_x_at) / Fold change /veh KRT8 (11758183_x_at) / RFU CNN1 (11734310_a_at) / Fold change /veh CNN1 (11734310_a_at) / RFU VPS37D (11726825_at) / Fold change /veh VPS37D (11726825_at) / RFU C10orf10 (11716522_x_at) / Fold change /veh C10orf10 (11716522_x_at) / RFU KIR2DL2 /// KIR2DL4 /// KIR2DL5A /// KIR2DL5B /// KIR2DS1 /// KIR2DS2 /// KIR2DS3 /// KIR2DS4 /// KIR3DL3 /// KIR3DL3 /// KIR3DS1 (11738374_at) / Fold change /veh KIR2DL2 /// KIR2DL4 /// KIR2DL5A /// KIR2DL5B /// KIR2DS1 /// KIR2DS2 /// KIR2DS3 /// KIR2DS4 /// KIR3DL3 /// KIR3DL3 /// KIR3DS1 (11738374_at) / RFU C1QL1 (11718748_at) / Fold change /veh C1QL1 (11718748_at) / RFU TMPRSS4 (11747572_a_at) / Fold change /veh TMPRSS4 (11747572_a_at) / RFU HAMP (11756126_x_at) / Fold change /veh HAMP (11756126_x_at) / RFU RNFT2 (11725882_a_at) / Fold change /veh RNFT2 (11725882_a_at) / RFU NR4A2 (11747474_a_at) / Fold change /veh NR4A2 (11747474_a_at) / RFU ABCC12 (11746883_a_at) / Fold change /veh ABCC12 (11746883_a_at) / RFU TMEM136 (11760407_x_at) / Fold change /veh TMEM136 (11760407_x_at) / RFU CLDN22 /// WWC2 (11732394_at) / Fold change /veh CLDN22 /// WWC2 (11732394_at) / RFU HLA-DPB1 (11760878_x_at) / Fold change /veh HLA-DPB1 (11760878_x_at) / RFU SPINT1 (11716480_a_at) / Fold change /veh SPINT1 (11716480_a_at) / RFU GAP43 (11754022_s_at) / Fold change /veh GAP43 (11754022_s_at) / RFU A4GNT (11735810_at) / Fold change /veh A4GNT (11735810_at) / RFU PRB3 (11715151_x_at) / Fold change /veh PRB3 (11715151_x_at) / RFU TUBB4B (11761932_at) / Fold change /veh TUBB4B (11761932_at) / RFU CAPN14 (11732068_a_at) / Fold change /veh CAPN14 (11732068_a_at) / RFU TMCC2 (11721928_a_at) / Fold change /veh TMCC2 (11721928_a_at) / RFU IRGQ (11745062_a_at) / Fold change /veh IRGQ (11745062_a_at) / RFU FAM174B (11720279_a_at) / Fold change /veh FAM174B (11720279_a_at) / RFU TMPRSS4 (11748680_a_at) / Fold change /veh TMPRSS4 (11748680_a_at) / RFU FAM212B (11763350_a_at) / Fold change /veh FAM212B (11763350_a_at) / RFU PLEKHG5 (11743358_a_at) / Fold change /veh PLEKHG5 (11743358_a_at) / RFU ZSCAN30 (11745921_a_at) / Fold change /veh ZSCAN30 (11745921_a_at) / RFU CMKLR1 (11741424_a_at) / Fold change /veh CMKLR1 (11741424_a_at) / RFU LOC101060620 /// MAPK8IP1 (11723275_at) / Fold change /veh LOC101060620 /// MAPK8IP1 (11723275_at) / RFU SPTSSB (11747773_x_at) / Fold change /veh SPTSSB (11747773_x_at) / RFU PRSS12 (11739890_at) / Fold change /veh PRSS12 (11739890_at) / RFU BIN1 (11741810_x_at) / Fold change /veh BIN1 (11741810_x_at) / RFU WNT11 (11732464_a_at) / Fold change /veh WNT11 (11732464_a_at) / RFU C10orf10 (11716521_a_at) / Fold change /veh C10orf10 (11716521_a_at) / RFU C5orf56 (11738089_at) / Fold change /veh C5orf56 (11738089_at) / RFU CYB561 (11721691_x_at) / Fold change /veh CYB561 (11721691_x_at) / RFU ANKRD19P (11752326_a_at) / Fold change /veh ANKRD19P (11752326_a_at) / RFU OR2T12 /// OR2T33 /// OR2T8 (11738714_s_at) / Fold change /veh OR2T12 /// OR2T33 /// OR2T8 (11738714_s_at) / RFU VCAN (11748164_a_at) / Fold change /veh VCAN (11748164_a_at) / RFU JSRP1 (11732532_at) / Fold change /veh JSRP1 (11732532_at) / RFU KRTAP10-11 (11738290_x_at) / Fold change /veh KRTAP10-11 (11738290_x_at) / RFU MYO3A (11730013_a_at) / Fold change /veh MYO3A (11730013_a_at) / RFU EBF3 (11725865_a_at) / Fold change /veh EBF3 (11725865_a_at) / RFU CAMK2N1 (11719241_x_at) / Fold change /veh CAMK2N1 (11719241_x_at) / RFU C5orf56 (11738088_a_at) / Fold change /veh C5orf56 (11738088_a_at) / RFU OLFML3 (11715873_a_at) / Fold change /veh OLFML3 (11715873_a_at) / RFU LOC100653217 /// NTM (11731650_a_at) / Fold change /veh LOC100653217 /// NTM (11731650_a_at) / RFU MAPK11 (11762145_a_at) / Fold change /veh MAPK11 (11762145_a_at) / RFU FIZ1 (11724087_x_at) / Fold change /veh FIZ1 (11724087_x_at) / RFU OASL (11726364_x_at) / Fold change /veh OASL (11726364_x_at) / RFU SOX15 (11748057_x_at) / Fold change /veh SOX15 (11748057_x_at) / RFU CD79A (11719716_a_at) / Fold change /veh CD79A (11719716_a_at) / RFU HIST1H1D (11736915_at) / Fold change /veh HIST1H1D (11736915_at) / RFU CASKIN2 (11723855_a_at) / Fold change /veh CASKIN2 (11723855_a_at) / RFU LOC730098 (11760151_x_at) / Fold change /veh LOC730098 (11760151_x_at) / RFU OR4N2 (11742367_at) / Fold change /veh OR4N2 (11742367_at) / RFU PRRT2 (11749266_a_at) / Fold change /veh PRRT2 (11749266_a_at) / RFU SNX32 (11753110_a_at) / Fold change /veh SNX32 (11753110_a_at) / RFU CDHR5 (11726645_a_at) / Fold change /veh CDHR5 (11726645_a_at) / RFU RCAN1 (11760418_a_at) / Fold change /veh RCAN1 (11760418_a_at) / RFU FAM167A (11723789_a_at) / Fold change /veh FAM167A (11723789_a_at) / RFU FAM26E (11764081_at) / Fold change /veh FAM26E (11764081_at) / RFU ISYNA1 (11749810_s_at) / Fold change /veh ISYNA1 (11749810_s_at) / RFU ACY1 (11761880_at) / Fold change /veh ACY1 (11761880_at) / RFU 11764098_at / Fold change /veh 11764098_at / RFU SAMD14 (11745864_x_at) / Fold change /veh SAMD14 (11745864_x_at) / RFU NPB (11741838_a_at) / Fold change /veh NPB (11741838_a_at) / RFU TMPRSS6 (11731388_a_at) / Fold change /veh TMPRSS6 (11731388_a_at) / RFU KRTAP10-2 (11738614_at) / Fold change /veh KRTAP10-2 (11738614_at) / RFU ARHGAP8 /// PRR5-ARHGAP8 (11727945_x_at) / Fold change /veh ARHGAP8 /// PRR5-ARHGAP8 (11727945_x_at) / RFU KRTAP5-7 /// NADSYN1 (11734609_at) / Fold change /veh KRTAP5-7 /// NADSYN1 (11734609_at) / RFU RASL12 (11751679_a_at) / Fold change /veh RASL12 (11751679_a_at) / RFU CDKN2B (11736163_a_at) / Fold change /veh CDKN2B (11736163_a_at) / RFU PRF1 (11729649_at) / Fold change /veh PRF1 (11729649_at) / RFU, ZNF638 /// ZNF638-IT1 / Fold change vs veh, ZNF638 /// ZNF638-IT1 / RFU, PANK3 / Fold change vs veh, PANK3 / RFU, SH3YL1 / Fold change vs veh, SH3YL1 / RFU, ZEB2 / Fold change vs veh, ZEB2 / RFU, NRIP1 / Fold change vs veh, NRIP1 / RFU, PTTG1IP / Fold change vs veh, PTTG1IP / RFU, CAPN2 / Fold change vs veh, CAPN2 / RFU, MED14 / Fold change vs veh, MED14 / RFU, SNORA58 / Fold change vs veh, SNORA58 / RFU, C1orf63 / Fold change vs veh, C1orf63 / RFU, LRRFIP1 / Fold change vs veh, LRRFIP1 / RFU, NDUFAF7 / Fold change vs veh, NDUFAF7 / RFU, SLC12A2 / Fold change vs veh, SLC12A2 / RFU, IBTK / Fold change vs veh, IBTK / RFU, ESF1 / Fold change vs veh, ESF1 / Fold change vs veh, TMEM50B / RFU, TAOK1 / Fold change vs veh, TAOK1 / RFU, ACBD3 / Fold change vs veh, ACBD3 / RFU, TMA16 / Fold change vs veh, TMA16 / RFU, RWDD3 / Fold change vs veh, RWDD3 / RFU, BCAT1 / Fold change vs veh, BCAT1 / RFU, EDEM3 / Fold change vs veh, EDEM3 / RFU, TMEM33 / Fold change vs veh, TMEM33 / RFU, WDR75 / Fold change vs veh, WDR75 / RFU, AHCTF1 / Fold change vs veh, AHCTF1 / RFU, TFRC / Fold change vs veh, TFRC / RFU, ZDHHC17 / Fold change vs veh, ZDHHC17 / RFU, NOM1 / Fold change vs veh, NOM1 / RFU, ARL8B / Fold change vs veh, ARL8B / RFU, ZBTB11 / Fold change vs veh, ZBTB11 / RFU, TAMM41 / Fold change vs veh, TAMM41 / RFU, KIAA1704 /// LOC100996395 / Fold change vs veh, KIAA1704 /// LOC100996395 / RFU, ING1 / Fold change vs veh, ING1 / RFU, TRMT61B / Fold change vs veh, TRMT61B / RFU, FUBP3 / Fold change vs veh, FUBP3 / RFU, TP53 / Fold change vs veh, TP53 / RFU, TNKS2 / Fold change vs veh, TNKS2 / RFU, ZFP14 / Fold change vs veh, ZFP14 / RFU, ACTR2 / Fold change vs veh, ACTR2 / RFU, PPP3R1 / Fold change vs veh, PPP3R1 / RFU, PIK3R1 / Fold change vs veh, PIK3R1 / RFU, HNRNPA1 / Fold change vs veh, HNRNPA1 / RFU, RNF170 / Fold change vs veh, RNF170 / RFU, ZNF28 / Fold change vs veh, ZNF28 / RFU, RNGTT / Fold change vs veh, RNGTT / RFU, OGT / Fold change vs veh, OGT / RFU, BRD1 / Fold change vs veh, BRD1 / RFU, MARS / Fold change vs veh, MARS / RFU, ZNF655 / Fold change vs veh, ZNF655 / RFU, FAHD1 / Fold change vs veh, FAHD1 / RFU, BDP1 / Fold change vs veh, BDP1 / RFU, LRRCC1 / Fold change vs veh, LRRCC1 / RFU, ARID1A / Fold change vs veh, ARID1A / RFU, ZNF146 / Fold change vs veh, ZNF146 / RFU, ZNF330 / Fold change vs veh, ZNF330 / RFU, GPN3 / Fold change vs veh, GPN3 / RFU, C9orf123 / Fold change vs veh, C9orf123 / RFU, N4BP2L2 / Fold change vs veh, N4BP2L2 / RFU, ARFIP1 / Fold change vs veh, ARFIP1 / RFU, FAM179B / Fold change vs veh, FAM179B / RFU, BCL10 / Fold change vs veh, BCL10 / RFU, UHRF1BP1L / Fold change vs veh, UHRF1BP1L / RFU, BET1 / Fold change vs veh, BET1 / RFU, CNOT2 / Fold change vs veh, CNOT2 / RFU, ZNF268 / Fold change vs veh, ZNF268 / Fold change vs veh, ZNF507 / RFU, DGCR2 / Fold change vs veh, DGCR2 / RFU, WDSUB1 / Fold change vs veh, WDSUB1 / Fold change vs veh, HSP90B1 /// MIR3652 / RFU, ADSS / Fold change vs veh, ADSS / RFU, GK / Fold change vs veh, GK / RFU, ZNF148 / Fold change vs veh, ZNF148 / RFU, TAF9 / Fold change vs veh, TAF9 / RFU, SLC1A5 / Fold change vs veh, SLC1A5 / RFU, SLMO2 / Fold change vs veh, SLMO2 / RFU, ABCC4 / Fold change vs veh, ABCC4 / RFU, LOC101060439 /// RAP1B / Fold change vs veh, LOC101060439 /// RAP1B / RFU, RFX7 / Fold change vs veh, RFX7 / RFU, GTPBP10 / Fold change vs veh, GTPBP10 / RFU, CNEP1R1 / Fold change vs veh, CNEP1R1 / RFU, BIVM-ERCC5 /// ERCC5 / Fold change vs veh, BIVM-ERCC5 /// ERCC5 / RFU, ILF3 / Fold change vs veh, ILF3 / RFU 11762660_at / Fold change /veh 11762660_at / RFU VCAN (11757783_s_at) / Fold change /veh VCAN (11757783_s_at) / RFU DDX43 (11728927_at) / Fold change /veh DDX43 (11728927_at) / RFU KRT8 (11758188_x_at) / Fold change /veh KRT8 (11758188_x_at) / RFU NKD1 (11759106_at) / Fold change /veh NKD1 (11759106_at) / RFU SRD5A1 (11742802_a_at) / Fold change /veh SRD5A1 (11742802_a_at) / RFU TPSAB1 /// TPSB2 (11721975_s_at) / Fold change /veh TPSAB1 /// TPSB2 (11721975_s_at) / RFU GSTM3 (11746129_a_at) / Fold change /veh GSTM3 (11746129_a_at) / RFU IL23R (11737362_x_at) / Fold change /veh IL23R (11737362_x_at) / RFU TMEM51 (11727254_a_at) / Fold change /veh TMEM51 (11727254_a_at) / RFU PIWIL2 (11732686_x_at) / Fold change /veh PIWIL2 (11732686_x_at) / RFU ORM1 (11744905_x_at) / Fold change /veh ORM1 (11744905_x_at) / RFU CCDC152 (11743942_at) / Fold change /veh CCDC152 (11743942_at) / RFU ECM1 (11717891_a_at) / Fold change /veh ECM1 (11717891_a_at) / RFU IL23R (11748794_a_at) / Fold change /veh IL23R (11748794_a_at) / RFU TNFAIP8L3 (11732012_x_at) / Fold change /veh TNFAIP8L3 (11732012_x_at) / RFU MBOAT4 (11741988_at) / Fold change /veh MBOAT4 (11741988_at) / RFU 11764193_at / Fold change /veh 11764193_at / RFU TMEM53 (11763286_at) / Fold change /veh TMEM53 (11763286_at) / RFU MAGEB2 (11727129_at) / Fold change /veh MAGEB2 (11727129_at) / RFU TMEM200A (11744735_a_at) / Fold change /veh TMEM200A (11744735_a_at) / RFU CCDC152 (11751479_a_at) / Fold change /veh CCDC152 (11751479_a_at) / RFU FAM211A (11726209_a_at) / Fold change /veh FAM211A (11726209_a_at) / RFU RGS16 (11746705_a_at) / Fold change /veh RGS16 (11746705_a_at) / RFU VCAN (11755009_s_at) / Fold change /veh VCAN (11755009_s_at) / RFU RHOB (11743442_s_at) / Fold change /veh RHOB (11743442_s_at) / RFU RGS16 (11720943_a_at) / Fold change /veh RGS16 (11720943_a_at) / RFU RGS16 (11720944_at) / Fold change /veh RGS16 (11720944_at) / RFU, VPS4B / Fold change vs veh, VPS4B / RFU, CREB1 / Fold change vs veh, CREB1 / RFU, DNAJC13 / Fold change vs veh, DNAJC13 / RFU, GNAQ / Fold change vs veh, GNAQ / RFU, CDK5R1 / Fold change vs veh, CDK5R1 / RFU, ZRANB3 / Fold change vs veh, ZRANB3 / RFU, CUL4A / Fold change vs veh, CUL4A / RFU, CCNY / Fold change vs veh, CCNY / RFU, UFL1 / Fold change vs veh, UFL1 / RFU, COG3 / Fold change vs veh, COG3 / RFU, DIAPH2 / Fold change vs veh, DIAPH2 / RFU, SKA2 / Fold change vs veh, SKA2 / RFU, AFF3 / Fold change vs veh, AFF3 / RFU, LMF1 / Fold change vs veh, LMF1 / RFU, IPO11 / Fold change vs veh, IPO11 / RFU, DFFB / Fold change vs veh, DFFB / RFU, FOXP1 / Fold change vs veh, FOXP1 / RFU, CARD8 / Fold change vs veh, CARD8 / RFU, STRN3 / Fold change vs veh, STRN3 / RFU, ADK / Fold change vs veh, ADK / RFU, RASSF2 / Fold change vs veh, RASSF2 / RFU, WIPF1 / Fold change vs veh, WIPF1 / RFU, LARP1B / Fold change vs veh, LARP1B / RFU, RASA1 / Fold change vs veh, RASA1 / RFU, RB1 / Fold change vs veh, RB1 / RFU, PPFIA1 / Fold change vs veh, PPFIA1 / RFU, MAT2A / Fold change vs veh, MAT2A / RFU, CCT5 / Fold change vs veh, CCT5 / RFU, WDR92 / Fold change vs veh, WDR92 / RFU, CUX1 / Fold change vs veh, CUX1 / RFU, TTC7A / Fold change vs veh, TTC7A / RFU, TMEM135 / Fold change vs veh, TMEM135 / RFU, DEPTOR / Fold change vs veh, DEPTOR / RFU, CPM / Fold change vs veh, CPM / RFU, DNAJB6 / Fold change vs veh, DNAJB6 / RFU, CACNA2D3 / Fold change vs veh, CACNA2D3 / RFU, DTX4 / Fold change vs veh, DTX4 / RFU, TFCP2 / Fold change vs veh, TFCP2 / RFU, GMCL1 /// GMCL1P1 / Fold change vs veh, GMCL1 /// GMCL1P1 / RFU, AEBP2 / Fold change vs veh, AEBP2 / RFU, SNHG1 /// SNORD22 /// SNORD25 /// SNORD26 /// SNORD27 /// SNORD28 /// SNORD29 /// SNORD31 / Fold change vs veh, SNHG1 /// SNORD22 /// SNORD25 /// SNORD26 /// SNORD27 /// SNORD28 /// SNORD29 /// SNORD31 / Fold change (Aza/veh), C12orf56 (ProbeSet 11735607_a_at) / Fold change (ACY-1035/veh), C12orf56 (ProbeSet 11735607_a_at) / Fold change (Aza/veh), FGFR1OP (ProbeSet 11751329_s_at) / Fold change (ACY-1035/veh), FGFR1OP (ProbeSet 11751329_s_at) / Fold change (Aza/veh), VPS36 (ProbeSet 11739960_a_at) / Fold change (ACY-1035/veh), VPS36 (ProbeSet 11739960_a_at) / RFU SYPL1 (11715823_x_at) / Fold change /veh SYPL1 (11715823_x_at) / RFU IGFBP7 (11715501_s_at) / Fold change /veh IGFBP7 (11715501_s_at) / RFU REEP3 (11722064_at) / Fold change /veh REEP3 (11722064_at) / RFU IGLL1 (11728026_x_at) / Fold change /veh IGLL1 (11728026_x_at): dose or concentration left out as unconfirmed
Details: ProbeSet 11720269_a_at; LIST B

## Nc1ncn([C@@H]2O[C@H](CO)[C@@H](O)[C@H]2O)c(=O)n1 [azacitidine]
  Fold change vs veh, IBTK: 0.94
